Series [1] relates to patient with obstructive sleep apnea. As to the kind of experiment: Repeated dosing, multiple medication study with calcium acamprosate and a weight reducing agent (sibutramine); polysomnographic investigation. The class given is in vivo, human. How it is done: The patient had recently been started on sibutramine (Reductil® capsules, 15 mg once daily) for weight loss. A follow-up sleep investigation (investigation 2) was performed 126 days later when the patient presented a BMI of 31.8. The AHI at this occasion was 19. Calcium acamprosate therapy was started on 333 mg three times per day orally (Campral® tablets) and increased to twice 333 mg three times per day after two weeks. At the end of this treatment period of four weeks (investigation 3) the BMI was marginally changed compared with investigation 2 (31.6) but AHI had decreased to 9.

The conditions of series [2]: pending dosage, route of administration, and dosing scheme; extended in renal impairment; cited from earlier work.
A further series has as its system OSA patient. As to the kind of experiment: Repeated dosing study with calcium acamprosate in an OSA patient (polysomnographic recording). The class given is in vivo, human. An excerpt:
A study of repeated calcium acamprosate dosing was undertaken in a patient with a BMI of 32.2. This patient had not consumed any alcohol during the 3 months proceeding the current medication period. The patient suffered from moderate OSA (as determined by an AH index in excess of 35 during previous clinical 8-channel overnight monitoring studies). The contribution from central apneas was low and constituted 5% of obstructive events, respectively. A baseline polysomnographic recording (standard sleep montage, nasal pressure recording) was undertaken at baseline and calcium acamprosate therapy was started on 333 mg three times per day orally (Campral® tablets) with an increase to 2 times 333 mg three times per day after two weeks. Key parameters (indices) were recorded at first dosing and after daily dosing for three weeks (Table).

Setting [3] is: Week 0, investigation 1 (admission), recently started on sibutramine 15 mg once daily.
[4] abbreviates: Week 18, investigation 2 (126 days later), sibutramine 15 mg once daily.
Where [5] appears, read: Week 3 of oral calcium acamprosate, Week 0 baseline 3.

The structures appear in SMILES notation.

With `CC(C)CC(N(C)C)C1(c2ccc(Cl)cc2)CCC1` (stereo not drawn) [Sibutramine, sibutramine], in series [1] (setting [3]), the “AHI (apnea/hypopnea index, number of obstructive apneic/hypopneic events per hour of sleep)” value was 30 events per hour of sleep and the “BMI (body mass index)” value is reported as 33.2 kg/m^2. Besides, in series [1] (setting [4]), the “AHI (apnea/hypopnea index, number of obstructive apneic/hypopneic events per hour of sleep)” value is reported as 19 events per hour of sleep and the “BMI (body mass index)” value is reported as 31.8 kg/m^2.

For `CC(=O)NCCCS(=O)(=O)O` [calcium acamprosate], the Half-life in plasma in series [2] is 15 to 30 h. In addition, in the series on OSA patient (setting [5]), the “CSAI (central sleep apnea index, number of central apneic events per hour of sleep)” value was 2 events per hour of sleep and the “Sat <90%/hr (number of apneic/hypopneic episodes per hour of sleep with an oxygen saturation below 90%)” value is given as 1 episodes per hour of sleep. Moreover, the “AI (apnea index, number of obstructive apneic events per hour of sleep)” value in the series with OSA patient (Week 3 of oral calcium acamprosate, Week 0 baseline 18) is listed as 7 events per hour of sleep. Also, in the series with OSA patient (Week 3 of oral calcium acamprosate, Week 0 baseline 22), the “HI (hypopnea index, number of obstructive hypopneic events per hour of sleep)” value is 9 events per hour of sleep. In the series with OSA patient (Week 3 of oral calcium acamprosate, Week 0 baseline 40), the “AHI (apnea/hypopnea index, number of obstructive apneic/hypopneic events per hour of sleep)” value is 16 events per hour of sleep. The “MinSat (lowest oxygen saturation value recorded during the period of sleep)” value with OSA patient (Week 3 of oral calcium acamprosate, Week 0 baseline 86) is 91. The “Number of central and mixed events” value with OSA patient (after calcium acamprosate, polysomnography) was “seemed to decrease in proportion to the number of obstructive events”. Also, in the series on OSA patient (already after one week), the “Daytime sleepiness (patient-reported)” value is recorded as “reduction in daytime sleepiness”. Moreover, the “Snoring (patient-reported)” value with OSA patient (early after introduction of the medication) is on record as “notable reduction in snoring”. The “Apnea reducing effect in sleep apnea” value with OSA patient (obstructive and seemingly central events, maintained over the entire study period) is recorded as “potent apnea reducing effect”. The Side effects result with OSA patient (three-week study, one patient) was “No significant side effects”. The “Apnea reducing effect in a patient with sleep apnea” value in series [1] (added to sibutramine) is given as “potent apnea reducing effect”. The “Effect of calcium acamprosate in comparison with that obtained by the weight reducing agent” value in series [1] (combined with sibutramine) is recorded as “additive”.

The record behind these values is patent publication US20080261931A1, “Method and Means of Preventing and Treating Sleep Disordered Breathing” (Cereu-Science AB, priority 2005, published 2008).
